Reference: patent US20090123389A1, “Methods for modulating Th17 cell development in the treatment and prevention of cellulite” (priority 2007, published 2009)

Columns and labels:
CD4+ CD25− T cells = test: CD4+ T cell proliferation, CD25 upregulation, cytokine production, Th1/Th2/iTreg differentiation; type: cell-based, mouse; conditions: for concentration causing general inhibition of T and B cell activation, proliferation and effector function: CD4+ T cells, CD8+ T cells, B220+ B cells
Experimental: The dose-response of HF on CD4+ T cell proliferation, activation (i.e. CD25 upregulation) and differentiation to Th1, Th2 and Th17 lineages were evaluated. Purified murine naïve CD4+ CD25− T cells were activated using anti-CD3 (0.3 μg/ml) and anti-CD28 (0.5 μg/ml) antibodies and varying amounts of HF was added to each T cell culture condition (1.25 nM-40 nM). CD4+ T cell proliferation was monitored by CFSE dilution on day 3-post activation and CD25 expression was evaluated by FACS staining 2 days after activation. For T cell differentiation experiments, naïve T cells were activated as above in the presence of Th1 (IL-12 (20 ng/ml) plus anti-IL-4 (1.5 μg/ml)), Th2 (IL-4 (50 ng/ml) plus anti-IFNγ (0.5 mg/ml)) or Th17 (TGFβ (3 ng/ml) plus IL-6 (30 ng/ml)) polarizing conditions plus titrating amounts of HF (1.25 nM-40 nM) or MAZ1310 (40 nM). The percentage of Th17 cells, (IL-17^+ IFNγ^−) was evaluated on day 3 following activation, whereas the abundance of Th1 cells (IFNγ^+ IL-4) and Th2 cells (IL-4^+ IFNγ^−) was determined 5 days following activation. All cytokine expression was determined by intracellular staining following PMA+Ionomycin+Brefeldin A re-stimulation and all data was normalized to control (MAZ1310)-treated cells. […] Biol., vol. 80:1-8 (2006).
Cytokines, antibodies and T cell culture: Purified CD4^+ CD25^− T cells were activated in vitro as previously described (I. M. Djuretic et al., Nat Immunol 8, 145 (2007)) using 0.3 μg/ml hamster anti-mouse CD3 (clone 145-2C11) (ATCC—Manassas, Va.) and 0.5 μg/ml hamster anti-mouse CD28 (BD Pharmingen, San Jose, Calif.). Activated cell cultures were differentiated using the following combinations of cytokines and antibodies: iTreg=recombinant human TGFβ1 (3 ng/ml; R&D systems, Minneapolis, Minn.), Th17=TGFβ1 (3 ng/ml) plus recombinant mouse IL-6 (30 ng/ml, R&D systems). Th1 and Th2 differentiation was performed as previously described. (I. M. Djuretic et al., Nat Immunol 8, 145 (2007)). Human IL-2 supernatant (National Cancer Institute) was used in culture at 0.01 U/ml and was added at 48 hours-post activation when T cells were split into tissue culture wells lacking CD3 and CD28 antibodies, with the exception of Th17 cultures that were maintained in the absence of IL-2. All reagents were added at the time of T cell activation and again at 48-hours post activation unless indicated otherwise. For some experiments, purified CD4^+ CD25^− T cells, CD8^+ T cells or B cells were labeled with 1 μM CFSE (Invitrogen) prior to activation in accordance with manufacturers instructions.
Detection of cytokine production: Cytokines secreted into media supernatant were measured using the mouse Th1/Th2 cytometric bead array (CBA, BD Pharmingen) in accordance with manufacturers instructions. Briefly, CD4^+ CD25^− T cells were activated in anti-CD3/anti-CD28-coated tissue culture wells and supernatants were collected at the indicated times. For detection of intracellular cytokines in murine cells, cultured T or B cells were stimulated with 10 nM PMA (Sigma) and […] (Sigma) for 4-5 hours in the presence of […] (Sigma). Stimulated cells were harvested, washed with PBS and fixed with PBS plus 4% paraformaldehyde at room temperature for 20 minutes. […]

SV-MES mesangial cells = test: eIF2α phosphorylation in SV-MES mesangial cells (western blot); type: cell-based; conditions: 20 nM HF, 2 hours
Experimental: SV-MES mesangial cells were stimulated for 2 hours with DMSO, 20 nM MAZ1310 or 20 nM HF. Whole cell lysates were analyzed for expression of phosphorylated or total eIF2α or GCN2 by western blotting.
Western blotting: Whole cell lysates were generated from T cells activated for the indicated times. For STAT3 and Smad2/3 western blots cells were harvested, washed in PBS and lysed in 50 mM Tris, pH 7.4, 0.1% SDS, 1% Triton-×100, 140 mM NaCl, 1 mM EDTA, 1 mM EGTA supplemented with protease inhibitors tablets (Roche—Germany), 1 mM NaF and 1 mM Na3VO4. For eIF2α and ATF4 western blots, cells were harvested as above and lysed in 50 mM Tris, pH 7.4, 2% SDS, 20% glycerol and 2 mM EDTA supplemented with protease and phosphatase inhibitors as above. All lysates were cleared via centrifugation and 15-30 μg of protein was resolved by SDS-PAGE. Protein was transferred to nitrocellulose membranes, blocked and blotted using specific antibodies. Antibodies used for western blot analysis were anti-phospho-Smad2, anti-STAT3 (pY705), anti-STAT3, anti-eIF2α^pS51, anti-eIF2α, anti-GCN2^pT898, anti-GCN2 (all from cell signaling technology, Danvers, Mass.). Anti-ATF4/CREB2 and anti-β-actin were purchased from Santa Cruz biotechnology (Santa Cruz, Calif.). […]

[1] = rabbit, in vivo; cited from earlier work
[2] = tested on: unfolded protein response (Xbp-1 splicing); test: Xbp-1 splicing / ER stress response in activated T cells

## O=C(CC1NCCCC1O)Cn1cnc2cc(Br)c(Cl)cc2c1=O (racemic) [HF, 7-bromo-6-chloro-3-[3-(3-hydroxy-2-piperidinyl)-2-oxopropyl]-4(3H)-quinazolinone]
CD4+ CD25− T cells
  concentration causing general inhibition of T and B cell activation, proliferation and effector function: > 20 nM
CD4+ CD25− T cells; listed as halofuginone
  concentration causing general inhibition of T and B cell activation, proliferation and effector function: 20 to 40 nM
CD4+ CD25− T cells; low concentrations of HF (1-10 nM)
  T cell proliferation, CD25 upregulation or production of IL-2, TNF or IFNγ: did not affect
CD4+ CD25− T cells; low-dose HF
  Th1, Th2 or iTreg differentiation (IFNγ, IL-4 or Foxp3 expression): failed to modulate
SV-MES mesangial cells
  eIF2α phosphorylation in cultured fibroblasts: increased eIF2α phosphorylation
[1]
  HF in serum after topical treatment of rabbits: undetectable in serum
[2]
  expression of hallmark ER stress response genes (GRP78/BiP, calreticulin and others): did not induce
[2]; tunicamycin 1 μg/ml or 10 nM HF, 4 hours
  Xbp-1 splicing: without promoting Xbp-1 splicing
